# Read-outs that look alike come from different tables or passages of the source.
# Assays:
# α4β2-nAChR = target: T1, α4β2-nAChR (Homo sapiens, UniProt P17787+P43681); assay: 86Rb+ efflux nAChR functional assay, SH-EP1-hα4β2 cells; type: cell-based
# T1 construct: expressed in transfected cells; host or cells: SH-EP1 epithelial cells (SH-EP1-hα4β2)
# Text: (§1) Cell Lines and Culture: Human embryonic kidney (HEK-293) cells stably expressing human DAT, NET or SERT were maintained as previously described in Eshleman, A. J.; Carmolli, M.; Cumbay, M.; Martens, C. R.; Neve, K. A.; Janowsky, A., J. Pharmacol. Exp. Ther. 1999, 289, (2), 877-885. Use was made of several human cell lines that naturally or heterologously express specific, functional, human nAChR subtypes. Cells of the TE671/RD line naturally expresses muscle-type nAChR (a1β1γδ- or α1*-nAChR), and SH-SY5Y neuroblastoma cells naturally expresses autonomic α3β4*-nAChRs (containing α3, β4, probably α5, and sometimes β2 subunits). Different clones of SH-EP1 epithelial cell lines have been engineered to heterologously express either α4β2-nAChR, which are thought to be the most abundant, high affinity nicotine-binding nAChR in mammalian brain, or α4β4-nAChR, another possible brain nAChR subtype (SH-EP1-hα4β2 or α4β4 cells, respectively). These cells were maintained as low passage number (1-26 from our frozen stocks) cultures to ensure stable expression of native or heterologously-expressed nAChR as previously described (see Lukas, R. J.; Fryer, J. D.; Eaton, J. B.; L., G. C., Some methods for studies of nicotinic acetylcholine receptor pharmacology, in Nicotinic receptors and the Nervous System, Levine, E. D., Ed. CRC Press: Boca Raton, 2002; pp 3-27, incorporated herein by reference in its entirety). Cells were passaged once weekly by splitting just-confluent cultures 1/300 (TE671/RD), 1/5 (SH-SY5Y), or 1/20 (transfected SH-EP1) in serum-supplemented medium to maintain log-phase growth.
# (§2) After cells had adhered (generally overnight, but no sooner than 4 h later), the medium was removed and replaced with 250 μL per well of complete medium supplemented with ˜350,000 cpm of ^86Rb^+ (PerkinElmer Life and Analytical Sciences, Boston, Mass.) and counted at 40% efficiency using Cerenkov counting (TriCarb 1900 liquid scintillation analyzer[…]; PerkinElmer Life Sciences).
# (§3) After at least 4 h and typically overnight, ^86Rb^+ efflux was measured using the “flip-plate” technique. See Lukas, R. J.; Fryer, J. D.; Eaton, J. B.; L., G. C., Some methods for studies of nicotinic acetylcholine receptor pharmacology, in Nicotinic receptors and the Nervous System, Levine, E. D., Ed. CRC Press: Boca Raton, 2002; pp 3-27, incorporated herein by reference in its entirety). Briefly, after aspiration of the bulk of ^86Rb^+ loading medium from each well of the “cell plate,” each well containing cells was rinsed 3× with 2 mL of fresh ^86Rb^+ efflux buffer (130 mM NaCl, 5.4 mM KCl, 2 mM CaCl2, 5 mM glucose, 50 mM HEPES, pH 7.4) to remove extracellular ^86Rb^+. Following removal of residual rinse buffer by aspiration, the flip-plate technique was used again to simultaneously introduce 1.5 mL of fresh efflux buffer containing drugs of choice at indicated final concentrations from a 24-well “efflux/drug plate” into the wells of the cell plate. After a 5 min incubation, the solution was “flipped” back into the efflux/drug plate, and any remaining buffer in the cell plate was removed by aspiration. Cells remaining in the cell plate were lysed and suspended by addition of 1.5 mL of 0.1 M NaOH, 0.1% sodium dodecyl sulfate to each well.
# (§4) Similarly, the sum of ^86Rb^+ in cell plates and efflux/drug plates also determined the efficiency of ^86Rb^+ loading (the percentage of applied ^86Rb^+ actually loaded into cells).
# (§5) Specific efflux was then taken as the difference in control samples between total and non-specific ^86Rb^+ efflux. Any intrinsic agonist activity of test drugs was ascertained using samples containing test drug only at different concentrations and was normalized, after subtraction of non-specific efflux, to specific efflux in test drug-free, control samples.
# [1] = test system: Male Institute of Cancer Research (ICR) mice; assay: Tail-flick test, blockade of nicotine-induced antinociception; type: in vivo; conditions: for AD50 Tail-flick / ED50: mice, pretreatment 15 min before nicotine 2.5 mg/kg s.c., tested 5 min after nicotine; for ED50: Mus musculus, 5 min, read-out: AD50 Tail-flick
# Text: (§6) Animals: Male Institute of Cancer Research (ICR) mice (weighing 20-25 g) obtained from Harlan (Indianapolis, Ind.) were used throughout the study. Animals were housed in an Association for Assessment and Accreditation of Laboratory Animal Care-approved facility, were placed in groups of six, and had free access to food and water. Studies were approved by the Institutional Animal Care and Use Committee of Virginia Commonwealth University.
# Tail-Flick Test: Antinociception for pain mediated at the spinal level was assessed by the tail-flick method of D'Amour, F. E.; Smith, D. L., J. Pharmacol. Exp. Ther. 1941, 72, 74-79, incorporated herein by reference in its entirety. In brief, mice were lightly restrained while a radiant heat source was shone onto the upper portion of the tail. To minimize tissue damage, a maximum latency of 10 s was imposed. Latency to remove the tail from the heat source was recorded for each animal. […] Antinociceptive response was calculated as the percentage of maximum possible effect (% MPE), where % MPE=[(test control)/(10 control)]×100.
# [2] = test system: Male Institute of Cancer Research (ICR) mice; assay: Hot-plate test, blockade of nicotine-induced antinociception; type: in vivo; conditions: pretreatment 15 min before nicotine 2.5 mg/kg s.c., tested 5 min after nicotine; for ED50: Mus musculus, read-out: AD50 Hot-plate
# Text: as §6
# Hot-Plate Test: Mice were placed into a 10-cm wide glass cylinder on a hot plate (Thermojust Apparatus) maintained at 55° C. for assessment of pain responses mediated at supraspinal levels. To minimize tissue damage, a maximum exposure to the hot plate 40 s was imposed. Measures of control latencies (time until the animal jumped or licked its paws; typically 8-12 s) were done twice for stimuli applied at least 10 min apart for each mouse. Antinociceptive responses after test drug administrations were determined and calculated as the % MPE, where % MPE=[(test latency in s−control latency in s)/(40 s−control latency in s)×100]. Groups of 8 to 12 animals were used for each drug condition. […] The animals were then tested 5 min after administration of a subcutaneous dose of 2.5 mg/kg nicotine.
# α3β4*-nAChR = target: T2, α3β4*-nAChR (Homo sapiens, UniProt P30926+P32297); assay: 86Rb+ efflux nAChR functional assay, SH-SY5Y cells; type: cell-based; conditions: EC80-EC90 carbamylcholine; SH-SY5Y; parentheses = S.E.M. as multiplication/division factor; read-out: nAChR inhibition IC50 α3β4±
# T2 construct: other: EC80-EC90 carbamylcholine; SH-SY5Y; parentheses = S.E.M. as multiplication/division
# T2 sequence (P32297 32-505): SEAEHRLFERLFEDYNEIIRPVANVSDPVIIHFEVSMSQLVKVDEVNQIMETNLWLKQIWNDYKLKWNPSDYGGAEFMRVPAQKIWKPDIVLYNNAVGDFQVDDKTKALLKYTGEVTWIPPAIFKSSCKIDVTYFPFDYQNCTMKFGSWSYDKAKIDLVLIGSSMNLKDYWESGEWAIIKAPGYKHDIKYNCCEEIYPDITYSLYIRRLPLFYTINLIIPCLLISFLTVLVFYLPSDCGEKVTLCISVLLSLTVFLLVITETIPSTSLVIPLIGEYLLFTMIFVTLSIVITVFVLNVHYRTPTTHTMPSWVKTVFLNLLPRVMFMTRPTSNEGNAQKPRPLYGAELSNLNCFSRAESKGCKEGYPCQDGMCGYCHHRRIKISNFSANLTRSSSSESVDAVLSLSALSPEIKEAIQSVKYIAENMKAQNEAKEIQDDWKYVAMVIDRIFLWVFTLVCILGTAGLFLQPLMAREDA
# T2 sequence (P30926 22-498): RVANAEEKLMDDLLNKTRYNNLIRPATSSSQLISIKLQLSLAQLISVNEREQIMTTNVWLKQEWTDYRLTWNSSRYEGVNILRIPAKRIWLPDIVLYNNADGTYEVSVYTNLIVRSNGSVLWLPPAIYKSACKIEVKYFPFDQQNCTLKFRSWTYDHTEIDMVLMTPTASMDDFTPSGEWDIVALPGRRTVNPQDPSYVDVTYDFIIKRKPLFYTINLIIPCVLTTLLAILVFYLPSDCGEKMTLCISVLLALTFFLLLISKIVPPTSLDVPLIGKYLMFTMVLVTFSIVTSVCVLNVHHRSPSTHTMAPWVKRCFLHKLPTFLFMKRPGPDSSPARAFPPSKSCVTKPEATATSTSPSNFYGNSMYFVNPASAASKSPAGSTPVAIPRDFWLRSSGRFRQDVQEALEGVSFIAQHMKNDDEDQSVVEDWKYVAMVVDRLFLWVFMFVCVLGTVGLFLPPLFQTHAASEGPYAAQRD
# Text: as §1, §2, §3, §4, §5
# [3] = EC80-EC90 carbamylcholine, SH-EP1-hα4β2, parentheses = S.E.M. as multiplication/division factor, read-out: nAChR inhibition IC50 α4β2
# T1 sequence (P43681 29-627 limits assumed): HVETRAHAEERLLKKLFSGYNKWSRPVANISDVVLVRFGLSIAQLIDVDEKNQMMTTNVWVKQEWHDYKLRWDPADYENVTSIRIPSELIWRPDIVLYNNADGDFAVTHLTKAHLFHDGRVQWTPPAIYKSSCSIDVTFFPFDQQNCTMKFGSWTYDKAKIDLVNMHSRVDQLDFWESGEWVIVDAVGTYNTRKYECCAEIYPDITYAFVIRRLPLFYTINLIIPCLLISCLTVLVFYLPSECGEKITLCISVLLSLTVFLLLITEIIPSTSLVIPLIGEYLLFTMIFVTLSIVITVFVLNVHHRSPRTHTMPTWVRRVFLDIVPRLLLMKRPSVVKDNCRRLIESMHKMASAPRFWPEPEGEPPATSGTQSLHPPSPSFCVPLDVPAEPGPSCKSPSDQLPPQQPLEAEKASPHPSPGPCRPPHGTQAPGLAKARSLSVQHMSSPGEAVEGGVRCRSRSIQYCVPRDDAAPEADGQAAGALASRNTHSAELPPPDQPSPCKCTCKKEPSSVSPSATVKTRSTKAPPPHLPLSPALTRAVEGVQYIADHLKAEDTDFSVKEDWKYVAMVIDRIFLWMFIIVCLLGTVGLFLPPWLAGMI
# T1 sequence (P17787 26-502): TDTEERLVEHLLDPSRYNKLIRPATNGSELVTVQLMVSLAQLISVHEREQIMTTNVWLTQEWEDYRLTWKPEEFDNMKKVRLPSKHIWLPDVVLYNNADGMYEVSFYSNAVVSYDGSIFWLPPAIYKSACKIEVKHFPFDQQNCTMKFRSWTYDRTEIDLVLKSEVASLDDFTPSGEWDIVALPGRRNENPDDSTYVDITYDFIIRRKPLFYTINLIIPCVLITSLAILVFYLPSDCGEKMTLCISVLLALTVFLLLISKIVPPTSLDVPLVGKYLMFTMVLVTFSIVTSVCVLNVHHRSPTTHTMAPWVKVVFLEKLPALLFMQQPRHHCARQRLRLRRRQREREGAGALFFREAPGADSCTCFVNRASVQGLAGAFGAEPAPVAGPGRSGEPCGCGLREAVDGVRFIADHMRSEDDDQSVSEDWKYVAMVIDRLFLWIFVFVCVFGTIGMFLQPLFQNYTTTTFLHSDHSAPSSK
Structure (SMILES),IC50 (α4β2-nAChR; [3]),AD50 Tail-flick [1],AD50 Hot-plate [2],IC50 (α3β4*-nAChR),IC50 (α4β2-nAChR),ED50 [1],selectivity for α4β2-nAChR over other nAChR subtypes (α4β2-nAChR),ED50 [2],selectivity for inhibition of α4β2-nAChR over DA uptake inhibition (α4β2-nAChR),"activity in the tail-flick assay relative to (2S,3S)-4a ([1]; higher activity than (2S,3S)-4a)"
"CC1NC(C)(C)COC1(O)c1cc(Cl)cc(Cl)c1 (racemic) [Compound 4p, 2-(3,5-Dichlorophenyl)-3,5,5-trimethylmorpholin-2-ol]",11 µM,IA (IA: AD50 > 15 mg/kg),IA (IA: AD50 > 15 mg/kg),–,–,–,–,–,–,–
"C[C@@H]1NC(C)(C)CO[C@@]1(O)c1ccc(-c2ccccc2)cc1 [Compound 4l, (2S,3S)-2-Biphenyl-4-yl-3,5,5-trimethylmorpholin-2-ol]",1.8 µM,–,IA (IA: AD50 > 15 mg/kg),1.3 µM,< 10 µM,0.021 mg/kg,–,–,–,–
"C[C@@H]1NC(C)(C)CO[C@@]1(O)c1cc(F)cc(F)c1 [Compound 4o, (2S,3S)-2-(3,5-Difluorophenyl)-3,5,5-trimethylmorpholin-2-ol]",6.3 µM,~0.006 mg/kg,IA (IA: AD50 > 15 mg/kg),11 µM,< 10 µM,0.0056 mg/kg,–,–,–,–
"COc1ccc([C@]2(O)OCC(C)(C)N[C@H]2C)cc1 [Compound 4k, (2S,3S)-2-(4-Methoxyphenyl)-3,5,5-trimethylmorpholin-2-ol]",27 µM,–,IA (IA: AD50 > 15 mg/kg),11 µM,–,0.019 mg/kg,–,–,–,–
"C[C@@H]1NC(C)(C)CO[C@@]1(O)c1cccc([N+](=O)[O-])c1 [Compound 4g, (2S,3S)-2-(3-Nitrophenyl)-3,5,5-trimethylmorpholin-2-ol]",4.8 µM,–,IA (IA: AD50 > 15 mg/kg),14 µM,< 10 µM,4.9 mg/kg,~3 fold,–,–,–
"CC[C@@H]1NC(C)(C)CO[C@@]1(O)c1cccc(Cl)c1 [Compound 4s, (2S,3S)-2-(3-Chlorophenyl)-3-ethyl-5,5-dimethylmorpholin-2-ol]",2.9 µM,–,–,4.3 µM,–,0.004 mg/kg,–,3.7 to 8.6 mg/kg,–,–
"C[C@@H]1N(C)C(C)(C)CO[C@@]1(O)c1ccc(Cl)cc1 [Compound 4v, (2S,3S)-2-(4-Chlorophenyl)-3,4,5,5-tetramethylmorpholin-2-ol]",42 µM,–,IA (IA: AD50 > 15 mg/kg),4.6 µM,–,0.32 mg/kg,–,–,–,–
"C[C@@H]1NC(C)(C)CO[C@@]1(O)c1ccc(Cl)cc1 [Compound 4i, (2S,3S)-2-(4-Chlorophenyl)-3,5,5-trimethylmorpholin-2-ol]",9.2 µM,–,IA (IA: AD50 > 15 mg/kg),5.1 µM,–,0.019 mg/kg,–,–,–,–
"Cc1ccc([C@]2(O)OCC(C)(C)N[C@H]2C)cc1 [Compound 4j, (2S,3S)-3,5,5-Trimethyl-2-(4-methylphenyl)morpholin-2-ol]",12 µM,–,IA (IA: AD50 > 15 mg/kg),8.6 µM,–,0.004 mg/kg,–,–,–,–
"C[C@@H]1N(C)C(C)(C)CO[C@@]1(O)c1cccc(Cl)c1 [Compound 4u, (2S,3S)-2-(3-Chlorophenyl)-3,4,5,5-tetramethylmorpholin-2-ol]",7.1 µM,–,IA (IA: AD50 > 15 mg/kg),6.5 µM,–,0.016 mg/kg,–,–,–,–
"C[C@@H]1NC(C)(C)CO[C@@]1(O)c1cccc(F)c1 [Compound 4c, (2S,3S)-2-(3-Fluorophenyl)-3,5,5-trimethylmorpholin-2-ol]",1.3 µM,–,–,15 µM,–,0.012 to 0.013 mg/kg,–,–,–,–
"C[C@@H]1NC(C)(C)CO[C@@]1(O)c1cccc(Br)c1 [Compound 4d, (2S,3S)-2-(3-Bromophenyl)-3,5,5-trimethylmorpholin-2-ol]",0.55 µM,–,–,3.2 µM,–,0.16 mg/kg,–,3.7 to 8.6 mg/kg,~6 fold,–
"Cc1cccc([C@]2(O)OCC(C)(C)N[C@H]2C)c1 [Compound 4e, (2S,3S)-2-(m-Tolyl)-3,5,5-trimethylmorpholin-2-ol]",6 µM,–,–,8.6 µM,–,0.054 mg/kg,–,–,–,–
"CC1NC(C)(C)COC1(O)c1ccc(Cl)c(Cl)c1 (racemic) [Compound 4n, 2-(3,4-Dichlorophenyl)-3,5,5-trimethylmorpholin-2-ol]",20 µM,–,IA (IA: AD50 > 15 mg/kg),–,–,8.8 mg/kg,–,–,–,–
"C[C@@H]1NC(C)(C)CO[C@@]1(O)c1ccc2ccccc2c1 [Compound 4r, (2S,3S)-2-(Naphthalen-2-yl)-3,5,5-trimethylmorpholin-2-ol]",6.5 µM,–,IA (IA: AD50 > 15 mg/kg),2 µM,–,0.04 mg/kg,–,–,–,~5 fold

# Reference: patent US8906908B2, “Hydroxybupropion analogues for treating drug dependence” (priority 2010, dated 2014)
